# Assay results published in US11357834B2, “Recombinant α-galactosidase A for treatment of Fabry disease” (Amicus Therapeutics, Inc., priority 2017, dated 2022).
# Experiments:
# [1] = Predicted human migalastat exposure after single IV dose and exposure margins
# Excerpt: (§1) Selection of Doses in the Study: The current single dose levels were selected on the basis of predicted human PK following IV dosing, non-clinical safety margins, and target therapeutic migalastat exposures for efficacy.
# [2] = General toxicology NOAEL, rat; set-up: AUC: dose or concentration left out as unconfirmed; conditions: in vivo
# in vivo = conditions: monkey, 500 mg/kg/day
# Excerpt: as §1
# [3] = Phase 1 IV and oral migalastat HCl pharmacokinetics in healthy volunteers; assay type: in vivo, human
# Procedure: Healthy volunteers received migalastat HCl via the IV route of administration to evaluate safety, tolerability, and pharmacokinetics. Another study was performed to determine the absolute bioavailability of migalastat after an oral capsule dose as compared to an IV administered dose of migalastat HCl in healthy volunteers.
# Type of Study: This Phase 1 study was a single-center study consisting of 2 designs. Cohorts 1, 2, and 3 were performed according to a randomized, double-blind, placebo-controlled, single ascending dose (SAD) IV study design to evaluate the safety, tolerability, and PK of IV administered migalastat HCl or IV administered placebo in healthy subjects. Cohort 4 was an open-label, randomized two-way crossover arm designed to assess the absolute bioavailability of orally administered migalastat HCl relative to IV administered migalastat HCl in healthy subjects.
# Cohorts 1, 2, 3: Subjects in Cohorts 1, 2, and 3 received IV administered single ascending doses of migalastat HCl. Seven subjects were enrolled into each cohort (5 subjects randomized to migalastat HCl and 2 subjects randomized to placebo). Dosing of Cohorts 1, 2, and 3 was staggered to allow for safety and tolerability review before proceeding with the next group. Therefore, Cohorts 1, 2, and 3 were each divided into 2 sub-groups: Group A (2 subjects randomized to migalastat HCl and 1 subject randomized to placebo) and Group B (3 subjects randomized to migalastat HCl and 1 subject randomized to placebo). Subjects in Group B were dosed the day following completion of Group A dosing. Except for Cohort 3B, which was dosed 31 days after Cohort 3A because an interim PK review was performed on emerged data from Cohort 3A.
# Cohort 4 was randomized such that 5 subjects received the oral formulation and 5 subjects received the IV formulation during Period 1, followed by the alternate formulation during Period 2. • *During Period 1, all Day −1 through Day 3 assessments were performed. ** The washout period was 7 days. *** During Period 2, subjects repeated all Day −1 through Day 3 assessments.
# Subjects enrolled in Cohorts 1, 2, and 3 were randomized to receive one of the following doses of migalastat HCl (n=5) or placebo (n=2):
# [4] = human, in vivo, po, 1250 mg
# [5] = cited from earlier work
# GL-3 and plasma lyso-Gb3 [6] = test: Repeat administration efficacy, two bi-weekly IV administrations (Example 9); assay type: in vivo, Gla KO mice; conditions: enzyme alone, 1 to 10 mg/kg
# Procedure: The efficacy of rhα-Gal A 01-003 with and without migalastat and Fabrazyme (agalsidase beta) were compared. Enzyme was administered via a bolus infusion into Gla KO mice with or without co-formulation with 3 mg/kg migalastat. ˜16 week old male Gla KO mice (n=8; 72 in total) were given two bi-weekly IV administrations.
# GL-3 and plasma lyso-Gb3 [7] = test: Single bolus IV administration efficacy, necropsy 7 days after dose (Example 10); assay type: in vivo, Gla KO mice
# Procedure: The efficacy of rhα-Gal A 01-003 with and without migalastat and Fabrazyme (agalsidase beta) were compared. Enzyme was administered via a single bolus infusion into Gla KO mice with or without co-formulation with migalastat. ˜18 week old male Gla KO mice (7 per group) were given a single bolus IV administration and necropsies were performed 7 days after dose. The treatment groups are shown in Table 15 and the results are shown in FIGS. 21A-21D and Tables 16-19.
# GL-3 = GL-3 one week after single IV administration (Example 7); assay type: in vivo, Gla KO mice; conditions: 1 mg/kg enzyme IV, one week post-administration
# Procedure: Gla KO mice were administered 1 mg/kg of enzyme IV and GL-3 measured one week post-administration.
# GL-3 and plasma lyso-Gb3 [8] = test: Substrate reduction seven days after single administration (Example 6); assay type: in vivo, Gla KO mice; conditions: 3 mg/kg enzyme
# Procedure: The effect on substrate reduction when combining these enzymes in a co-formulation with migalastat was also assessed. […]
# In addition to assessment of enzyme activity in tissues, the degree of substrate reduction seven days post-administration was determined.
molecule,measurement,setting,value
"Cl.OC[C@H]1NC[C@H](O)[C@@H](O)[C@H]1O [Migalastat HCl, migalastat HCl]","Fold Cover to AUC from human oral 1250 mg, Max",[1]; 0.3 mg/kg IV,62
same,"Fold Cover to AUC from human oral 1250 mg, Median",[1]; 0.3 mg/kg IV,39
same,"Fold Cover to AUC from human oral 1250 mg, Min",[1]; 0.3 mg/kg IV,15.5
same,"Fold Cover to Cmax from human oral 1250 mg, Max",[1]; 0.3 mg/kg IV,61
same,"Fold Cover to Cmax from human oral 1250 mg, Median",[1]; 0.3 mg/kg IV,36
same,"Fold Cover to Cmax from human oral 1250 mg, Min",[1]; 0.3 mg/kg IV,2.6
same,"Fold Cover to NOAEL AUC, Monkey",[1]; 0.3 mg/kg IV,165
same,"Fold Cover to NOAEL AUC, Rat",[1]; 0.3 mg/kg IV,134
same,"Fold Cover to NOAEL Cmax, Monkey",[1]; 0.3 mg/kg IV,68
same,"Fold Cover to NOAEL Cmax, Rat",[1]; 0.3 mg/kg IV,65
same,"Fold Cover to AUC from human oral 1250 mg, Max",[1]; 10.0 mg/kg IV,1.89
same,"Fold Cover to AUC from human oral 1250 mg, Median",[1]; 10.0 mg/kg IV,1.19
same,"Fold Cover to AUC from human oral 1250 mg, Min",[1]; 10.0 mg/kg IV,0.47
same,"Fold Cover to Cmax from human oral 1250 mg, Max",[1]; 10.0 mg/kg IV,1.81
same,"Fold Cover to Cmax from human oral 1250 mg, Median",[1]; 10.0 mg/kg IV,1.07
same,"Fold Cover to Cmax from human oral 1250 mg, Min",[1]; 10.0 mg/kg IV,0.08
same,"Fold Cover to NOAEL AUC, Monkey",[1]; 10.0 mg/kg IV,4.98
same,"Fold Cover to NOAEL AUC, Rat",[1]; 10.0 mg/kg IV,4.05
same,"Fold Cover to NOAEL Cmax, Monkey",[1]; 10.0 mg/kg IV,2.02
same,"Fold Cover to NOAEL Cmax, Rat",[1]; 10.0 mg/kg IV,1.93
same,AUC,[2],249 µg·h/mL
same,Cmax at Rat NOAEL,[2]; 1500 μg/kg/day,23400 ng/mL
same,AUC,in vivo,306 µg·h/mL
same,"maximum arithmetic mean plasma concentration, IV dosing relative to oral dosing",[3]; 150 mg IV vs 150 mg oral,approximately 2 fold
same,time of maximum arithmetic mean plasma concentration after start of infusion,"[3]; IV 150 mg, 2-hour infusion",2 h
same,dose dependence of mean plasma concentration-time profiles,[3]; increasing IV doses 0.3 to 10 mg/kg,clear dose-dependent increase in plasma concentrations
same,time of maximum arithmetic mean plasma concentration after start of infusion,"[3]; single 2-hour IV infusion, 0.3 to 10 mg/kg",2 h
same,Maximum observed individual AUC,[4],115.9 µg·h/mL
same,Maximum observed individual Cmax,[4],21900 ng/mL
same,Median observed individual AUC,[4],73.2 µg·h/mL
same,Median observed individual Cmax,[4],13000 ng/mL
same,Minimum observed individual AUC,[4],28.9 µg·h/mL
same,Minimum observed individual Cmax,[4],4780 ng/mL
same,maximum exposure (AUC),[4],116 µg·h/mL
same,exposure linearity,"[5]; oral administrations, to 1250 mg",linear exposures
same,tissue uptake of active α-Gal A into skin,"[5]; phase 2a, 23 Fabry patients, single oral 150 mg co-administered with 0.2, 0.5, and 1.0 mg/kg agalsidase",improved tissue uptake of active α-Gal A into skin
Fabrazyme: homodimeric recombinant human α-Gal A marketed by Genzyme under the name Fabrazyme,"GL-3 in heart and kidney, dose-response",GL-3 and plasma lyso-Gb3 [6],good dose-response
same,"GL-3 in skin and plasma lyso-GB3, dose-response",GL-3 and plasma lyso-Gb3 [6],good dose-response
same,GL-3 levels Heart,GL-3 and plasma lyso-Gb3 [7]; 1 mg/kg,183.23 μg/g tissue
same,GL-3 levels Kidney,GL-3 and plasma lyso-Gb3 [7]; 1 mg/kg,443 μg/g tissue
same,GL-3 levels Skin,GL-3 and plasma lyso-Gb3 [7]; 1 mg/kg,1465 μg/g tissue
same,Plasma lyso-Gb3 levels,GL-3 and plasma lyso-Gb3 [7]; 1 mg/kg,122 ng/mL
same,GL-3 levels Heart,GL-3 and plasma lyso-Gb3 [7]; 10 mg/kg,53.20 μg/g tissue
same,GL-3 levels Kidney,GL-3 and plasma lyso-Gb3 [7]; 10 mg/kg,281 μg/g tissue
same,GL-3 levels Skin,GL-3 and plasma lyso-Gb3 [7]; 10 mg/kg,207 μg/g tissue
same,Plasma lyso-Gb3 levels,GL-3 and plasma lyso-Gb3 [7]; 10 mg/kg,29.5 ng/mL
same,GL-3 levels Heart,GL-3 and plasma lyso-Gb3 [7]; 25 mg/kg,21.10 μg/g tissue
same,GL-3 levels Kidney,GL-3 and plasma lyso-Gb3 [7]; 25 mg/kg,203 μg/g tissue
same,GL-3 levels Skin,GL-3 and plasma lyso-Gb3 [7]; 25 mg/kg,102 μg/g tissue
same,Plasma lyso-Gb3 levels,GL-3 and plasma lyso-Gb3 [7]; 25 mg/kg,18.1 ng/mL
rhα-Gal A 01-003: recombinant human α-galactosidase A produced by CHO cell clone 01-003,α-Gal A substrate (GL-3) in heart and kidney,GL-3,able to reduce α-Gal A substrate in heart and kidney
same,"GL-3 in heart and kidney, dose-response",GL-3 and plasma lyso-Gb3 [6],good dose-response
same,"GL-3 in skin and plasma lyso-GB3, dose-response",GL-3 and plasma lyso-Gb3 [6],good dose-response
same,GL-3 levels Heart,GL-3 and plasma lyso-Gb3 [7]; 10 mg/kg,30.30 μg/g tissue
same,GL-3 levels Kidney,GL-3 and plasma lyso-Gb3 [7]; 10 mg/kg,277 μg/g tissue
same,GL-3 levels Skin,GL-3 and plasma lyso-Gb3 [7]; 10 mg/kg,149 μg/g tissue
same,Heart GL-3 % reduction compared to Fabrazyme (10 mg/kg),GL-3 and plasma lyso-Gb3 [7]; 10 mg/kg,43.05%
same,Kidney GL-3 % reduction compared to Fabrazyme (10 mg/kg),GL-3 and plasma lyso-Gb3 [7]; 10 mg/kg,1.42%
same,Plasma lyso-Gb3 % reduction compared to Fabrazyme (10 mg/kg),GL-3 and plasma lyso-Gb3 [7]; 10 mg/kg,2.71%
same,Plasma lyso-Gb3 levels,GL-3 and plasma lyso-Gb3 [7]; 10 mg/kg,28.7 ng/mL
same,Skin GL-3 % reduction compared to Fabrazyme (10 mg/kg),GL-3 and plasma lyso-Gb3 [7]; 10 mg/kg,28.02%
same,overall substrate reduction (GL-3 and lyso-Gb3),GL-3 and plasma lyso-Gb3 [7]; rhα-Gal A 10 mg/kg,greater substrate reduction than an equivalent dose of Fabrazyme
rhα-Gal A 04-023: recombinant human α-galactosidase A produced by CHO cell clone 04-023,plasma lyso-Gb3 compared to Fabrazyme alone (1 mg/kg),GL-3 and plasma lyso-Gb3 [8]; seven days,significantly lower levels of plasma lyso-Gb3
same,reduction of GL-3 in heart tissue compared to 1 mg/kg Fabrazyme,GL-3 and plasma lyso-Gb3 [8]; seven days (FIG. 15A),significantly enhanced reduction of GL-3
same,reduction in GL-3 in kidney,GL-3 and plasma lyso-Gb3 [8]; seven days (FIG. 15B),enhanced substrate reduction
same,GL-3 in skin compared to Fabrazyme alone (1 mg/kg),GL-3 and plasma lyso-Gb3 [8]; seven days (FIG. 15C),significantly lower level of GL-3 in skin
